According to PMC4615156 (Nucleus, 2014):

Target: PCNA (Homo sapiens, UniProt P12004)
Test: Fixation of live cells labeled with the cell-permeable PIP
Type: cell-based
Details: PCNA expressing cells labeled live, then 3.7% formaldehyde

Chain of PCNA (P12004 whole entry): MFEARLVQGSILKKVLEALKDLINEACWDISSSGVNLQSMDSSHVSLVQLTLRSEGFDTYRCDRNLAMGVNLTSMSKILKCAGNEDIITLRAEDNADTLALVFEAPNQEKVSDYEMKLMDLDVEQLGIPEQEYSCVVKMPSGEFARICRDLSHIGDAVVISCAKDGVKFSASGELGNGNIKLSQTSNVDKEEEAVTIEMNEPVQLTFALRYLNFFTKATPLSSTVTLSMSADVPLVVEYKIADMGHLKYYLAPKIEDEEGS

Labeling of repair sites after fixation of live labeled cells: still marks repair sites
Substance: RRRQRRKKRG-C C-SAVLQKKITDYFHPKKG-EDA-TAMRA (disulfide) [TAT(-SS-)PL-R]
